Data reported in article PMC7782793, “Hydroxamic acid-modified peptide microarrays for profiling isozyme-selective interactions and inhibition of histone deacetylases” (Nature Communications, 2021).
“And” between values parts separate entries of the source, which are not always exact repeats. Equal entries are not always repeated. Marks after values point to notes of the source that are not given here. Non-standard residues stand in square brackets, D forms with d. Residues, ends and D or L forms follow the SMILES beside them. *: point of attachment. Asu = N[C@@H](CCCCCC(=O)O)C(=O)O; NHOH = ON*

Assays:
[1] = target: T1, HDAC2 (Homo sapiens, UniProt Q92769); assay: Recombinant HDAC µSPOT microarray binding assay;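 also: Cellulose-bound peptide spots on slides incubated with six HDAC enzyme concentrations, binding intensity read, four-parameter variable-slope fit, EC50 is enzyme concentration giving half-maximal binding, in HEPES buffer pH 7.4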
T1 construct: HDAC2 (full length, C-terminal His tag, BPS Bioscience, cat. #: 50002); purchased BPS Bioscience 50002
T1 sequence (Q92769 whole entry): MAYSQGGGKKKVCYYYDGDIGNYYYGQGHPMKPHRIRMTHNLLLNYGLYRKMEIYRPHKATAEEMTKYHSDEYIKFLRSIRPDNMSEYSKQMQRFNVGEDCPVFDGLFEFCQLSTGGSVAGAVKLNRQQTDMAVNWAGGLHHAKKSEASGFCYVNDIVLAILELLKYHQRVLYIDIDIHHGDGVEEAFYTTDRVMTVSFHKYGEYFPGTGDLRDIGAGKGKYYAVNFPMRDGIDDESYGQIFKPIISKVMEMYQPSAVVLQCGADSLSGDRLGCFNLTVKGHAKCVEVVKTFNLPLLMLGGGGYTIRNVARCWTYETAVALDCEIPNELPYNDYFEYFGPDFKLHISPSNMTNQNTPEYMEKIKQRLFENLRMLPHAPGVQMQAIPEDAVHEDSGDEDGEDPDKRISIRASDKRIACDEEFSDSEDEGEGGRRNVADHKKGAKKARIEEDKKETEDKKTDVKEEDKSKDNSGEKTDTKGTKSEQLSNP
Protocol: Experiments were performed twice, data were obtained with Array Analyze software (Active Motif), and data analysis and representation were performed with the GraphPad Prism 7 software. Outliers were curated manually and data were fitted to nonlinear regression [log(agonist) vs. response—variable slope (four parameters)]. […] Non-sigmoidal curves were denoted as not determined (N.D.) The pEC50 values were determined as the concentration of HDAC enzyme required for half-maximal binding signal.

[2] = target: T2, HDAC8 (Homo sapiens, UniProt Q9BY41); assay: HDAC inhibition assay (fluorogenic, Ac-Leu-Gly-Lys(Tfa)-AMC); assay type: biochemical; settings: for HDAC8 dose-response data (relative enzyme activity, replicate values), Fig. 6 + S. Fig. 10: two replicate columns per inhibitor; for HDAC8 dose-response data (relative enzyme activity), Fig. 6 + S. Fig. 10: duplicate columns
T2 construct: HDAC8 (full length, C-terminal His tag, BPS Bioscience, cat. #: 50008); purchased BPS Bioscience 50008
T2 sequence (Q9BY41 1-377): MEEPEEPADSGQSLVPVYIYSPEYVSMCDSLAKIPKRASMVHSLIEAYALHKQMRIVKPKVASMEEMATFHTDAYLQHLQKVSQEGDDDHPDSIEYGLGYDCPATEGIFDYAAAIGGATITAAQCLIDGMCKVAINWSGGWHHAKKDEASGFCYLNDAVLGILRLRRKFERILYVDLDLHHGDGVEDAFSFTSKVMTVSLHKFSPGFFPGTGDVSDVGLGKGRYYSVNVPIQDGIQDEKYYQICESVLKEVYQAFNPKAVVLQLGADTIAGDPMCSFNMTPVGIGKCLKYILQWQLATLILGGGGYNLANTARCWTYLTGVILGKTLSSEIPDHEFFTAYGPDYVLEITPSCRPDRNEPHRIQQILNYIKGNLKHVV

[3] = target: T1, HDAC2; assay: HDAC inhibition assay (fluorogenic, Ac-Leu-Gly-Lys(Ac)-AMC); assay type: biochemical; settings: for HDAC2 dose-response data (relative enzyme activity), Fig. 6 + S. Fig. 10: duplicate columns
[4] = target: T3, HDAC1 (Homo sapiens, UniProt Q13547); assay: Recombinant HDAC µSPOT microarray binding assay;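 also: slides with spotted peptides incubated with six HDAC concentrations in HEPES buffer pH 7.4, spot intensities fitted by four-parameter logistic, EC50 as enzyme concentration giving half-maximal binding signal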
T3 construct: HDAC1 (full length, C-terminal His tag, C-terminal FLAG tag, BPS Bioscience, cat. #: 50051); FLAG (C); purchased BPS Bioscience 50051
T3 sequence (Q13547 whole entry): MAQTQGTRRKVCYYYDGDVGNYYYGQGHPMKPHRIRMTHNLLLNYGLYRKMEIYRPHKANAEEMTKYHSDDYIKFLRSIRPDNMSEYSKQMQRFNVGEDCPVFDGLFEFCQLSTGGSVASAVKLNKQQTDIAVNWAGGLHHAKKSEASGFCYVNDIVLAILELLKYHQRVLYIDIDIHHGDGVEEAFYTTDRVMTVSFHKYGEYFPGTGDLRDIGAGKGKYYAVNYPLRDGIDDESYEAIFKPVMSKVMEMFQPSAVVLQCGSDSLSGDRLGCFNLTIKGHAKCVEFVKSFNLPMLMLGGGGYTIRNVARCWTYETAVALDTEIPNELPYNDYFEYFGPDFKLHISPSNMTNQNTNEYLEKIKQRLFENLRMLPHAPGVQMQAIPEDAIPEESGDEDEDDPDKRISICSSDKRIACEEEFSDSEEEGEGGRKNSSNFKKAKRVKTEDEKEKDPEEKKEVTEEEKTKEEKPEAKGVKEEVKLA

[5] = target: T4, HDAC3/NCoR2 (Homo sapiens, UniProt O15379); assay: Recombinant HDAC µSPOT microarray binding assay;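 also: peptide spots on cellulose slides incubated with rising HDAC enzyme concentrations, imaged together, four-parameter logistic fit, EC50 is enzyme concentration giving half-maximal binding signal, two experiments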
T4 construct: HDAC3/NCoR2 (full length, C-terminal His tag, NCoR2 N-terminal GST tag); purchased BPS Bioscience 50003
T4 sequence (O15379 whole entry): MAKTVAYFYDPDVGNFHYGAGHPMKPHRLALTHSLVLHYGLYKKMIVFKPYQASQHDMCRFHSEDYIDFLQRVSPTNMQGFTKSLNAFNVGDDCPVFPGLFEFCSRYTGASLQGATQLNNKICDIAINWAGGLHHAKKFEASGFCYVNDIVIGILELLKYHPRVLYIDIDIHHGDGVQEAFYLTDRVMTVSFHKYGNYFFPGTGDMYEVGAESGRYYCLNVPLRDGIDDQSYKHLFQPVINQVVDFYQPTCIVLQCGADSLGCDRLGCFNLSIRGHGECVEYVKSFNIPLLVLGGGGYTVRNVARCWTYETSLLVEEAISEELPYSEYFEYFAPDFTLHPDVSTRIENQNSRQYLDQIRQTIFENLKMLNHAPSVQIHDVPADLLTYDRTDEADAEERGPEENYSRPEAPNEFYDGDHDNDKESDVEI
T4 sequence (Q9Y618 389-480 partner limits assumed): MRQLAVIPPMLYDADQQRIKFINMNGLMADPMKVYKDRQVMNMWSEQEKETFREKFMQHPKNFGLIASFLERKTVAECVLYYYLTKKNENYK

[6] = target: T5, HDAC6 (Homo sapiens, UniProt Q9UBN7); assay: HDAC inhibition assay (fluorogenic, Ac-Leu-Gly-Lys(Ac)-AMC); assay type: biochemical; settings: HDAC6, replicates
T5 construct: HDAC6 (full length, BPS Bioscience, cat. #: 50056); purchased BPS Bioscience 50056
T5 sequence (Q9UBN7 1-1215): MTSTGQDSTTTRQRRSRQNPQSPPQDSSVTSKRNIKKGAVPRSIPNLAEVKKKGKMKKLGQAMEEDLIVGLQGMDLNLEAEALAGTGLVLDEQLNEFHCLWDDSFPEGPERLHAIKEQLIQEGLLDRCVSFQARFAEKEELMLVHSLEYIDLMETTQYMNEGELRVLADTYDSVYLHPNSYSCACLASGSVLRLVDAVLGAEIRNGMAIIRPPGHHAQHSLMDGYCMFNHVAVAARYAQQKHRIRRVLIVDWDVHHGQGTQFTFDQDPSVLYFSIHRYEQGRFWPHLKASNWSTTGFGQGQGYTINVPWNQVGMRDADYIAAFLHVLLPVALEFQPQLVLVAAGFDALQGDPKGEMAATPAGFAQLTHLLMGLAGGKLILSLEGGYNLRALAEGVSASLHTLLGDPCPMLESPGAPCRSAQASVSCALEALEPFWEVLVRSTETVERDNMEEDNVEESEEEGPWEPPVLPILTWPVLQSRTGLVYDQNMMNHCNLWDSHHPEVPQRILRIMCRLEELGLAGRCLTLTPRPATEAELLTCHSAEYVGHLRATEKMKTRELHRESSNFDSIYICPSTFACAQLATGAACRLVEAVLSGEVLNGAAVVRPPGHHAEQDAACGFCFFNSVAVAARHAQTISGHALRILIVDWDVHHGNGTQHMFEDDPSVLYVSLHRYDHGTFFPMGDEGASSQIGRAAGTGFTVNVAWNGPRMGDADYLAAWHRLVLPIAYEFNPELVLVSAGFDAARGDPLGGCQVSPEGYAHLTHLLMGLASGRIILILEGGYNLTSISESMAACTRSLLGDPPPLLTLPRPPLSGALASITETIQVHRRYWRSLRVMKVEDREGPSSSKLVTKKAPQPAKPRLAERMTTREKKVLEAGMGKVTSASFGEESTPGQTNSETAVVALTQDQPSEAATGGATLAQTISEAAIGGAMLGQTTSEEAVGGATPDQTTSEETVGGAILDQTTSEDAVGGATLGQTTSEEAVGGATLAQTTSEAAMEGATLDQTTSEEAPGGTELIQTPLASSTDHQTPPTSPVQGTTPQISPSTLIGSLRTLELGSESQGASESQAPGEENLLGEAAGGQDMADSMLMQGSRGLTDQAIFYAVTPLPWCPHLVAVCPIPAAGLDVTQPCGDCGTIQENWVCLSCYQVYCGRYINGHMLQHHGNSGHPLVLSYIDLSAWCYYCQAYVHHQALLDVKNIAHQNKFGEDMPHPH

[7] = target: T3, HDAC1; assay: as above; assay type: biochemical; settings: for HDAC1 dose-response data (relative enzyme activity), Fig. 6 + S. Fig. 10: duplicate columns
[8] = target: T2, HDAC8; assay: Recombinant HDAC µSPOT microarray binding assay;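 also: peptide µSPOT slides incubated with varying HDAC enzyme concentrations, imaged signal intensity fitted by four-parameter variable-slope regression, EC50 is enzyme concentration giving half-maximal binding, pH 7.4 HEPES buffer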
[9] = target: T4, HDAC3/NCoR2; assay: HDAC inhibition assay (fluorogenic, Ac-Leu-Gly-Lys(Ac)-AMC); assay type: biochemical; settings: for HDAC3 dose-response data (relative enzyme activity), Fig. 6 + S. Fig. 10: duplicate columns
[10] = log[inhibitor(M)] -10,5850266520292*, whole line marked with asterisks

Which results are given for `CC[C@H](C)[C@H](NC(=O)[C@@H](NC(=O)[C@H](CC(N)=O)NC(C)=O)C(C)C)C(=O)N[C@@H](CCCNC(=N)N)C(=O)N[C@@H](CC(=O)O)C(=O)N[C@@H](C)C(=O)N[C@H](C(=O)N[C@H](C(=O)N[C@@H](Cc1ccc(O)cc1)C(=O)N[C@H](C(=O)N[C@@H](CCC(=O)O)C(=O)N[C@@H](Cc1c[nH]cn1)C(=O)N[C@@H](C)C(=O)N[C@@H](CCCCCC(=O)NO)C(=O)N[C@@H](CCCNC(=N)N)C(=O)N[C@@H](CCCCN)C(=O)N[C@@H](Cc1c[nH]c2ccccc12)C(N)=O)[C@@H](C)O)[C@@H](C)O)C(C)C` [17a] (Ac-NVIRDAVTYTEHA[Asu](NHOH)RKW-NH2)?
EC50 [1]: 2 nM; Ki [2]: 7640 ± 60 nM; HDAC8 dose-response data (relative enzyme activity, replicate values), Fig. 6 + S. Fig. 10 ([2]; Inhibitor conc [M] -8.49485 (log)): 101.42 and 103.54; HDAC8 dose-response data (relative enzyme activity, replicate values), Fig. 6 + S. Fig. 10 ([2]; Inhibitor conc [M] -9.19382 (log)): 101.25 and 102.69; HDAC8 dose-response data (relative enzyme activity, replicate values), Fig. 6 + S. Fig. 10 ([2]; Inhibitor conc [M] given as -7.09691 (log)): 100.44 and 104.26; HDAC8 dose-response data (relative enzyme activity, replicate values), Fig. 6 + S. Fig. 10 ([2]; Inhibitor conc [M] given as -7.79588 (log)): 103.27 and 103.5; HDAC8 dose-response data (relative enzyme activity, replicate values), Fig. 6 + S. Fig. 10 ([2]; Inhibitor conc [M] given as -9.89279 (log)): 103.01 and 103.7; HDAC8 dose-response data (relative enzyme activity, replicate values), Fig. 6 + S. Fig. 10 ([2]; Inhibitor conc [M] given as -10.585 (log)): 99,9* and 101,68*; HDAC8 dose-response data (relative enzyme activity), Fig. 6 + S. Fig. 10 ([2]; Inhibitor conc [M] -4.30103): 25.68 and 25; HDAC8 dose-response data (relative enzyme activity), Fig. 6 + S. Fig. 10 ([2]; Inhibitor conc [M] -5): 60.57 and 62.81; HDAC8 dose-response data (relative enzyme activity), Fig. 6 + S. Fig. 10 ([2]; Inhibitor conc [M] -5.69897): 94.41 and 91.83; HDAC8 dose-response data (relative enzyme activity), Fig. 6 + S. Fig. 10 ([2]; Inhibitor conc [M] -6.39794): 100.36 and 103.01; HDAC2 dose-response data (relative enzyme activity), Fig. 6 + S. Fig. 10 ([3]; log[inhibitor(M)] -5): 11.53 and 14.13; HDAC2 dose-response data (relative enzyme activity), Fig. 6 + S. Fig. 10 ([3]; log[inhibitor(M)] -5.69897): 38.85 and 44.3; HDAC2 dose-response data (relative enzyme activity), Fig. 6 + S. Fig. 10 ([3]; log[inhibitor(M)] -7.79588): 99.37 and 102.1; HDAC2 dose-response data (relative enzyme activity), Fig. 6 + S. Fig. 10 [3, 10]: 100,76* and 101,65*; Ki ([3]; resynthesized peptide in solution, Cheng-Prusoff, n = 2): 183 ± 1 nM; EC50 [4]: > 25.1 nM; EC50 [5]: 3.16 nM; residual enzymatic activity relative to control wells ([6]; log[inhibitor(M)] -4.30103): 0.85 and 0.89; residual enzymatic activity relative to control wells ([6]; log[inhibitor(M)] -5): 2.67 and 3.1; residual enzymatic activity relative to control wells ([6]; log[inhibitor(M)] -5.69897): 11.05 and 12.51; residual enzymatic activity relative to control wells ([6]; log[inhibitor(M)] -6.39794): 38.36 and 40.68; residual enzymatic activity relative to control wells ([6]; log[inhibitor(M)] -7.09691): 72.92 and 74.07; residual enzymatic activity relative to control wells ([6]; log[inhibitor(M)] -7.79588): 92.5 and 90.62; residual enzymatic activity relative to control wells ([6]; log[inhibitor(M)] -8.49485): 97.52 and 97.55; residual enzymatic activity relative to control wells ([6]; log[inhibitor(M)] -9.19382): 99.98 and 98.59; residual enzymatic activity relative to control wells ([6]; log[inhibitor(M)] -9.89279): 98.46 and 98.12; residual enzymatic activity relative to control wells ([6]; log[inhibitor(M)] -10.585): 98,71* and 97,59*; Ki [7]: 198 ± 1 nM; HDAC1 dose-response data (relative enzyme activity), Fig. 6 + S. Fig. 10 ([7]; log[inhibitor(M)] -4.30103): 2.18 and 2.15; HDAC1 dose-response data (relative enzyme activity), Fig. 6 + S. Fig. 10 ([7]; log[inhibitor(M)] -5): 8.98 and 8.99; HDAC1 dose-response data (relative enzyme activity), Fig. 6 + S. Fig. 10 ([7]; log[inhibitor(M)] -5.69897): 31.34 and 30.75; HDAC1 dose-response data (relative enzyme activity), Fig. 6 + S. Fig. 10 ([7]; log[inhibitor(M)] -6.39794): 69.51 and 67.92; HDAC1 dose-response data (relative enzyme activity), Fig. 6 + S. Fig. 10 ([7]; log[inhibitor(M)] -7.09691): 91.81 and 91.08; HDAC1 dose-response data (relative enzyme activity), Fig. 6 + S. Fig. 10 ([7]; log[inhibitor(M)] -7.79588): 100.43 and 97.85; HDAC1 dose-response data (relative enzyme activity), Fig. 6 + S. Fig. 10 ([7]; log[inhibitor(M)] -8.49485): 101.87 and 100.28; HDAC1 dose-response data (relative enzyme activity), Fig. 6 + S. Fig. 10 ([7]; log[inhibitor(M)] -9.19382): 101.68 and 99.1; HDAC1 dose-response data (relative enzyme activity), Fig. 6 + S. Fig. 10 ([7]; log[inhibitor(M)] -9.89279): 102.02 and 100.95; HDAC1 dose-response data (relative enzyme activity), Fig. 6 + S. Fig. 10 [7, 10]: 100,29* and 101,16*; EC50 [8]: > 25.1 nM; Ki [9]: 90.7 ± 0.3 nM; HDAC3 dose-response data (relative enzyme activity), Fig. 6 + S. Fig. 10 ([9]; log[inhibitor(M)] -4.30103): 1.48 and 1.63; HDAC3 dose-response data (relative enzyme activity), Fig. 6 + S. Fig. 10 ([9]; log[inhibitor(M)] -5): 5.89 and 6.06; HDAC3 dose-response data (relative enzyme activity), Fig. 6 + S. Fig. 10 ([9]; log[inhibitor(M)] -5.69897): 20.29 and 20.52; HDAC3 dose-response data (relative enzyme activity), Fig. 6 + S. Fig. 10 ([9]; log[inhibitor(M)] -6.39794): 47.71 and 47.78; HDAC3 dose-response data (relative enzyme activity), Fig. 6 + S. Fig. 10 ([9]; log[inhibitor(M)] -7.09691): 75.88 and 76.54; HDAC3 dose-response data (relative enzyme activity), Fig. 6 + S. Fig. 10 ([9]; log[inhibitor(M)] -7.79588): 91.62 and 91.95; HDAC3 dose-response data (relative enzyme activity), Fig. 6 + S. Fig. 10 ([9]; log[inhibitor(M)] -8.49485): 95.02 and 96.22; HDAC3 dose-response data (relative enzyme activity), Fig. 6 + S. Fig. 10 ([9]; log[inhibitor(M)] -9.19382): 95.35 and 97.08; HDAC3 dose-response data (relative enzyme activity), Fig. 6 + S. Fig. 10 ([9]; log[inhibitor(M)] -9.89279): 93.78 and 97.79; HDAC3 dose-response data (relative enzyme activity), Fig. 6 + S. Fig. 10 [9, 10]: 97,93* and 99,33*
